Target: T1, TMEM16A(ac) (Homo sapiens, UniProt Q5XXA6, DEL476-501)
T1 construct: expressed in transfected cells
T1 sequence (Q5XXA6 with tags, fused parts or gaps DEL476-501): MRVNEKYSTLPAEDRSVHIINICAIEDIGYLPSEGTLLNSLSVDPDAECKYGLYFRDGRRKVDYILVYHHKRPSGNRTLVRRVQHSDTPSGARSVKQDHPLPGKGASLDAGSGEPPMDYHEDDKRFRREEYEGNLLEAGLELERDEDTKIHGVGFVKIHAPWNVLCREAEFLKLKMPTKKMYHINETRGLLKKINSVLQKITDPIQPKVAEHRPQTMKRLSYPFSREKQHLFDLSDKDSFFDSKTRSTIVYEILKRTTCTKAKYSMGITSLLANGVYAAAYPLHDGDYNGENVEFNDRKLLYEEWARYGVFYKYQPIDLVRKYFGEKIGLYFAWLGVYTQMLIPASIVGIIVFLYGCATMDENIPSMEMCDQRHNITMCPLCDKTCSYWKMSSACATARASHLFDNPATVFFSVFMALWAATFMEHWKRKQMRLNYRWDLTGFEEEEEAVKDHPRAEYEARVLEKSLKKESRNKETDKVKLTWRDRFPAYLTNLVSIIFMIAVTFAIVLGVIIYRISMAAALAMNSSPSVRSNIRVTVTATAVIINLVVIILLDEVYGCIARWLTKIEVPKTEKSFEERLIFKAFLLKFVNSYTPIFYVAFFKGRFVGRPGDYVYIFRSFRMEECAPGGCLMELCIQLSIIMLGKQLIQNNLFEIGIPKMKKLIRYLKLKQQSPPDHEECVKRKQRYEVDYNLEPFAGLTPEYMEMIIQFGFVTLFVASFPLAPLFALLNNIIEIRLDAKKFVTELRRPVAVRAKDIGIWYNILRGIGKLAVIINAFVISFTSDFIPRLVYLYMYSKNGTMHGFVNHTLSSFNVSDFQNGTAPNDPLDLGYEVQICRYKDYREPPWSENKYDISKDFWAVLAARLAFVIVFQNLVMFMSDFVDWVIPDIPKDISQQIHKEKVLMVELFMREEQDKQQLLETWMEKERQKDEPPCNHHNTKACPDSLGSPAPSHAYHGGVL
Experiment: hsYFP quenching assay in NCL-SG3-hsYFP-TMEM16A(ac) cells
Type: cell-based
Conditions: 330 μM ATP; for Effect of pretreatment on hsYFP quenching / Ca^2+-dependent Cl^− secretion after ATP: cells overexpressing TMEM16A(ac)
Experimental: NCL-SG3-hsYFP, NCL-SG 3-hsYFP-TMEM16A(ac) and NCL-SG3-hsYFP-TMEM16A(acΔe3) cells were untreated (basal activity) or stimulated with ATP (330 μM). Quenching of hsYFP fluorescence was determined. The rate of I^− influx (sec^−1) was calculated from the initial slope of measured hsYFP fluorescence (ΔYFP fluorescence/Δtime) and is a direct measure of CaCC activity. For better comparison fold changes compared to basal activity of parental cells are shown. […] All influx rate differences are higly statistically significant, except the basal influx rate of parental and TMEM16A(ac) overexpressing NCL-SG3-hsYFP cells (Student's t-test, two-tailed; *** p-value<0.0001).
TMEM16A(ac) and TMEM16A(acΔe3) are present in human eccrine sweat glands and were therefore obtained by RT-PCR amplification using TRIzol® (Invitrogen) extracted RNA from freshly isolated human eccrine sweat glands using oligonucleotides (forward 5′-[…]; reverse 5′-[…]) SEQ ID NOS: 5 and 6 , which amplify full-length TMEM16A, and subsequently cloned into the proprietary eukaryotic gene expression plasmid (pEF1α-TMEM16A(ac) and pEF1α-TMEM16A(acΔe3), FIG. 6A). […] Both genes are coupled by an internal ribosomal entry site (IRES) to enable efficient translation of both open reading frames located on the same mRNA. […]
Taken together, NCL-SG3-hsYFP cells can be used to monitor Ca^2+-dependent Cl^− fluxes, which represent the initial step in primary sweat formation in sweat gland cells. […] Microplates were transferred into an automated fluorescence plate reader (FlexStation®, Molecular Devices) and cellular hsYFP fluorescence was continuously recorded every 3.5 sec until end of the experiment (excitation at 485 nm, emission at 535 nm, cutoff 515 nm). […] NCL-SG3-hsYFP cells allow quantitative evaluation of in vivo Cl^− channel activity (FIGS. 9 and 10D). To determine the exact rate of Cl^− efflux/I^− influx the hsYFP fluorescence was plotted against time (ΔYFP fluorescence/Δtime). […]

Row | SMILES | ATP-induced activity (I^− influx rate, fold) (TMEM16A(ac) overexpressing cells) [fold] | Effect of pretreatment on hsYFP quenching / Ca^2+-dependent Cl^− secretion after ATP | Effect of pretreatment on hsYFP quenching / Ca^2+-dependent Cl^− secretion after ATP (listed as tannic acid)
1 | Nc1ncnc2c1ncn2[C@@H]1O[C@H](COP(=O)(O)OP(=O)(O)OP(=O)(O)O)[C@@H](O)[C@H]1O [ATP] | 10 | – | –
2 | O=C(OC[C@H]1O[C@@H](OC(=O)c2cc(O)c(O)c(OC(=O)c3cc(O)c(O)c(O)c3)c2)[C@H](OC(=O)c2cc(O)c(O)c(OC(=O)c3cc(O)c(O)c(O)c3)c2)[C@@H](OC(=O)c2cc(O)c(O)c(OC(=O)c3cc(O)c(O)c(O)c3)c2)[C@@H]1OC(=O)c1cc(O)c(O)c(OC(=O)c2cc(O)c(O)c(O)c2)c1)c1cc(O)c(O)c(OC(=O)c2cc(O)c(O)c(O)c2)c1 [TA, tannic acid] | – | significant reduction of hsYFP quenching | inhibited

Source: US9809853B2, “Calcium-activated chloride channel involved in human sweat formation” (BRAIN Biotechnology Research and Information Network AG, priority 2012, dated 2017)
